Values quoted from earlier work in patent US20160208299A1, “PRODUCTION OF ISOQUINOLINE ALKALOIDS AND FLAVONOIDS IN PLANT CELL CULTURES OF GOLDENSEAL (HYDRASTIS CANADENSIS)” (DIANAPLANTSCIENCES INC., priority 2015, published 2016).

Assays:
[1] = tested on: E. coli; details: cells lining the walls of the urinary tract
[2] = tested on: Trichomonas vaginalis
[3] = tested on: Entamoeba histolytica
[4] = tested on: Giardia lamblia

COc1ccc2cc3[n+](cc2c1OC)CCc1cc2c(cc1-3)OCO2 [berberine]
effective: effectiveness in treating infection by blocking the adhesion of E. coli [1] | effectiveness against parasite [2] | effectiveness against parasite [3] | effectiveness against parasite [4]
